Laboratory results as given in patent publication US5212286A, “Atrial Natriuretic/vasodilator peptide compounds” (Scios Nova Inc., priority 1986, dated 1993).
Positions of bridges follow the written chain, without caps; N, C: chain ends. Residues, ends and D or L forms follow the SMILES beside them. No end group written: not given here.

Legend:
experimental animals = assay: Diuretic activity following infusion into experimental animals (FIG. 12B); type: in vivo; conditions: urinary flow rate as percentage of baseline
Excerpt: FIG. 12 graphically portrays a comparison of the activities of selected compounds of the present invention, in which Panel A depicts a dose response relationship comparing the vasorelaxant properties of rANVP […] and [Ala^130 ]rANVP(126-150) and Panel B portrays a comparison of the diuretic activities of the same two peptides following infusion into experimental animals. Urinary flow rates during and post infusion (periods 7-24) were compared to control (baseline) flow rates (periods 1-6) and data are expressed as the percentage of baseline control values;
In table VII, various ANVP compounds were tested over a ten-fold range of concentration. Most of the peptides induced diuresis and natriuresis with few exceptions ([D-Asp^135 ]rANVP(126-150), [D-Val^137 ] rANVP(126-150)]). […] This is perhaps best observed with the ANVP analog [Ala^130 ]rANVP(126-150). […] Thus, it appears that [Ala^130 ]rANVP(126-150), rANVP(126-147) and related peptide forms represent classes of compounds which may exert renal selectivity. Such compounds could have important therapeutic value.

[1] = tested on: ANVP receptor sites on cultured bovine vascular smooth muscle cells; assay: Displacement of specific [125I]rANVP(126-150) binding on cultured smooth muscle cells; conditions: for Ki: concentration of half-maximal displacement
Excerpt: Specific and saturable binding is a necessary component of a hormone/receptor interaction.
Various concentrations of the peptides described were examined for […]

[2] = tested on: precontracted rabbit or rat aortic preparations; assay: Vasorelaxant potency on precontracted aortic rings; conditions: for vasorelaxant potency in words: precontracted vascular preparations
Description: Synthetic ANVP compounds were compared to partially purified (gel filtration step) and purified (HPLC) native ANVP compounds (See FIGS. 3A-D) for their ability to relax histamine-contracted aortic rings. Rings were suspended in 10 ml aerated Kreb's buffer under 1.5 gm passive tension. Rings were precontracted with 5 X 10^-6 M histamine, washed and allowed to return to baseline tension, as described ([…]., supra). Increasing amounts of purified or synthetic ANVP compounds were then added in cumulative fashion. […] The relaxation effects of various ANVP compounds on precontracted rabbit or rat aortic preparations are shown in Table III. | Thoracic aortic segments were precontracted with histamine or | norepinephrine as previously described. Various doses of ANVP compounds | were then added and relaxation of the precontracted state was monitored. | Data are expressed as the concentration of each peptide required to | produce a halfmaximal relaxation of the precontracted tissue (IC50).

[3] = tested on: rabbit thoracic aortic rings; assay: Relaxation of histamine-contracted rabbit thoracic aortic rings; conditions: tested as described for the expressed material
Description: Synthetic ANVP compounds were compared to partially purified (gel filtration step) and purified (HPLC) native ANVP compounds (See FIGS. 3A-D) for their ability to relax histamine-contracted aortic rings. Rings were suspended in 10 ml aerated Kreb's buffer under 1.5 gm passive tension. Rings were precontracted with 5 X 10^-6 M histamine, washed and allowed to return to baseline tension, as described (Kleinert, H. D., supra). Increasing amounts of purified or synthetic ANVP compounds were then added in cumulative fashion.
The dried methanol soluble and ammonium acetate eluted material was resolubilized in 0.5 ml of distilled H2 O and tested for biological activity using the precontracted rabbit thoracic aortic ring model described in Kleinert, et al., Hypertension 6:Suppl. 1:143-146 (1984). Equal volumes of material reconstituted from crude lyophilized media, methanol soluble protein or protein eluted from SP-Sephadex® with 1.0 M ammonium acetate were compared using aortic rings precontracted with 5 μM histamine. Material synthesized by yeast cultures whose plasmids encoded proANVP (amino acids 26-152) (YEp-α-NF-9) and proANVP (amino acids 121-152) (YEp-α-NF-5), as well as the corresponding inverse orientations (YEp-α-NF-12 and YEp-α-NF-7, respectively), were compared.
A fraction of the crude bacteria extract was subsequently boiled for 5 minutes and lowered to pH 2.5 for 1 hour. […]

Row | Molecule | diuretic effects in vivo compared with rANVP(126-150) (FIG. 12b) (experimental animals) | binding activity in smooth muscle cells relative to rANVP(126-150), in words [1] | Ki ([1]; Series B smooth muscle cells) [nM] | vasorelaxant potency in words [2] | vasorelaxant potency in words ([2]; listed as [Ala^130 ] rANVP) | IC50 ([2]; thoracic aortic segments precontracted with histamine or norepinephrine, read-out: IC50 (concentration producing half-maximal relaxation of the precontracted tissue)) [nM] | biological (vasodilatory) activity of expression products, in words [3] | Ki ([1]; Series A smooth muscle cells) [nM]
1 | CC[C@H](C)[C@@H]1NC(=O)[C@H](CCCNC(=N)N)NC(=O)[C@H](CC(=O)O)NC(=O)[C@H]([C@@H](C)CC)NC(=O)[C@H](CCCNC(=N)N)NC(=O)CNC(=O)CNC(=O)[C@H](C)NC(=O)[C@@H](NC(=O)[C@H](CO)NC(=O)[C@H](CO)NC(=O)[C@@H](N)CCCNC(=N)N)CSSC[C@@H](C(=O)N[C@@H](CC(N)=O)C(=O)N[C@@H](CO)C(=O)N[C@@H](Cc2ccccc2)C(=O)N[C@@H](CCCNC(=N)N)C(=O)N[C@@H](Cc2ccc(O)cc2)C(=O)O)NC(=O)CNC(=O)[C@H](CC(C)C)NC(=O)CNC(=O)[C@H](CO)NC(=O)[C@H](CCC(N)=O)NC(=O)[C@H](C)NC(=O)CNC1=O [[Ala^130]rANVP(126-150)] | nearly equipotent | comparable binding activity to rANVP(126-150) | 11.1 | substantially less potent than rANVP(126-150) | essentially inactive | > 100 | – | –
2 | CC[C@H](C)[C@@H]1NC(=O)[C@H](CCCNC(=N)N)NC(=O)[C@H](CC(=O)O)NC(=O)[C@H](CCSC)NC(=O)[C@H](CCCNC(=N)N)NC(=O)CNC(=O)CNC(=O)[C@H](Cc2ccccc2)NC(=O)[C@@H](NC(=O)[C@H](CO)NC(=O)[C@@H](N)CO)CSSC[C@@H](C(=O)N[C@@H](CC(N)=O)C(=O)N[C@@H](CO)C(=O)N[C@@H](Cc2ccccc2)C(=O)N[C@@H](CCCNC(=N)N)C(=O)N[C@@H](Cc2ccc(O)cc2)C(=O)O)NC(=O)CNC(=O)[C@H](CC(C)C)NC(=O)CNC(=O)[C@H](CO)NC(=O)[C@H](CCC(N)=O)NC(=O)[C@H](C)NC(=O)CNC1=O [hANVP(128-151)] (H-SSCFGGRMDRIGAQSGLGCNSFRY-OH; disulfide 3-19) | – | – | – | – | – | – | displayed the full range of biological activities | 7
3 | hANVP(126-151): human product produced in CHO cells, as printed; probably prohANVP(26-151) (RRSSCFGGRMDRIGAQSGLGCNSFRY; ends and bridges not checked; cysteine pairing not given here; UniProt P01160 126-151, looked up, fragment) | – | – | – | – | – | – | exhibited biological activity similar to that observed above | –
